This note sets out measurements from ChEMBL document CHEMBL1139665, “Synthesis, X-ray crystallographic analysis, and antitumor activity of N-(benzothiazole-2-yl)-1-(fluorophenyl)-O,O-dialkyl-alpha-aminophosphonates” (2006).

The structures appear in SMILES notation.

Assay [1] concerns PC-3. Nature of the assay: Antiproliferative activity against PC3 cells at 1 uM by MTT assay after 72 hrs. The format is functional. The conditions noted are these: Homo sapiens, PC-3, 72 h.
Assay [2] relates to PC-3. Nature of the assay: Antiproliferative activity against PC3 cells at 5 uM by MTT assay after 72 hrs. The format is functional. The conditions noted are these: Homo sapiens, PC-3, 72 h.
Assay [3] has as its system PC-3. Nature of the assay: Antiproliferative activity against PC3 cells at 10 uM by MTT assay after 72 hrs. The class given is functional. The conditions noted are these: Homo sapiens, PC-3, 72 h.
Assay [4] deals with A-375. Nature of the assay: Antiproliferative activity against A375 cells at 1 uM by MTT assay after 72 hrs. The class given is functional. The settings on record: Homo sapiens, A-375, 72 h.
The subject of assay [5] is A-375. Nature of the assay: Antiproliferative activity against A375 cells at 5 uM by MTT assay after 72 hrs. The class given is functional. The settings on record: Homo sapiens, A-375, 72 h.
The subject of assay [6] is A-375. Nature of the assay: Antiproliferative activity against A375 cells at 10 uM by MTT assay after 72 hrs. The format is functional. The settings on record: Homo sapiens, A-375, 72 h.
The test system of assay [7] is A-431. Nature of the assay: Antiproliferative activity against A431 cells at 1 uM by MTT assay after 72 hrs. The class given is functional. The conditions noted are these: Homo sapiens, A-431, 72 h.
In assay [8] the test system is A-431. Nature of the assay: Antiproliferative activity against A431 cells at 5 uM by MTT assay after 72 hrs. The settings on record: Homo sapiens, A-431, 72 h. The class given is functional.
In assay [9] the test system is A-431. Nature of the assay: Antiproliferative activity against A431 cells at 10 uM by MTT assay after 72 hrs. The format is functional. The conditions noted are these: Homo sapiens, A-431, 72 h.
The nature of assay [10]: Antiproliferative activity against Bcap37 cells at 1 uM by MTT assay after 72 hrs. The class given is functional, Homo sapiens.
A short description of assay [11]: Antiproliferative activity against Bcap37 cells at 5 uM by MTT assay after 72 hrs. The class given is functional, Homo sapiens.
Assay [12] can be described thus: Antiproliferative activity against Bcap37 cells at 10 uM by MTT assay after 72 hrs. The class given is functional, Homo sapiens.

`COP(=O)(OC)C(Nc1nc2c(C)cccc2s1)c1ccc(C(F)(F)F)cc1` (stereo unspecified): the inhibition at 1 µM in assay [1] was 4%; in [4], 1.8%; in assay [7], 22.1%; in [10], -13.2%. The inhibition at 5 µM in assay [2] was 4.6%; in assay [5], 19.2%; in assay [8] it was 26%; in [11] it was -0.8%. The inhibition at 10 µM amounted to 8.9% in [3], 20.8% in assay [6], 47.3% in [9] and 2.5% in [12].
Turning to `CCCCOP(=O)(OCCCC)C(Nc1nc2ccc(OC)cc2s1)c1ccccc1F` (stereo unspecified), the inhibition at 1 µM in assay [1] is -6.6%; in assay [4], -6.2%; in [7] it was -3.7%; in [10], 23.6%. For the same compound, the inhibition at 5 µM in [2] turned out to be 5.3%; in [5] it was 3.5%; in assay [8], 5.4%; in assay [11], 38.2%. The inhibition at 10 µM came out at 13.2% in assay [3], 17.4% in [6], 28.8% in assay [9] and 44.2% in assay [12].
In the case of `CCOP(=O)(OCC)C(Nc1nc2c(C)cccc2s1)c1ccccc1F` (stereo unspecified), the inhibition at 1 µM in [1] was 3.51%; in [4], -13.9%; in assay [7], 17.7%; in [10], 35.8%. The inhibition at 5 µM in assay [2] is 22.9%; in assay [5] it was -6.1%; in assay [8], 23.3%; in assay [11], 42.6%. The inhibition at 10 µM in [3] was determined as 41.9%; in assay [6], 9.2%; in assay [9] it was 35.3%; in assay [12], 58.9%.
With `Cc1cccc2sc(NC(c3ccc(C(F)(F)F)cc3)P(=O)(OC(C)C)OC(C)C)nc12` (stereo unspecified), the inhibition at 1 µM in assay [1] is 6.3%; in [4] it was -1.3%; in assay [7], 17.3%; in assay [10], -0.7%. The inhibition at 5 µM in [2] came out at 15.3%; in assay [5] it was 8.6%; in assay [8] it was 20.5%; in assay [11], 11.2%. Besides, the inhibition at 10 µM was 25.9% in assay [3], 9.1% in [6], 29.5% in assay [9] and 22.7% in assay [12].
On to `CCOP(=O)(OCC)C(Nc1nc2ccc(OC)cc2s1)c1ccccc1F` (stereo unspecified), for which the inhibition at 1 µM came out at 16.8% in assay [1], 7.5% in assay [4], 4.5% in assay [7] and 20.5% in assay [10]. For the same compound, the inhibition at 5 µM in assay [2] amounted to 22.5%; in [5], 7.9%; in assay [8] it was 12.3%; in [11], 34.5%. For the same compound, the inhibition at 10 µM in [3] is 38.9%; in [6], 15.7%; in [9], 22.1%; in assay [12] it was 49.4%.
Consider `CCCOP(=O)(OCCC)C(Nc1nc2ccc(OC)cc2s1)c1ccccc1F` (stereo unspecified), for which the inhibition at 1 µM in assay [1] turned out to be 5%; in assay [4] it was 10.3%; in assay [7] it was 35.3%; in assay [10], 21.3%. Further, the inhibition at 5 µM in assay [2] was 15.8%; in [5], 13.9%; in [8], 49.2%; in assay [11], 25.1%. The inhibition at 10 µM in [3] amounted to 28.7%; in assay [6] it was 23.8%; in [9] it was 58.1%; in assay [12], 27.1%.
As for `CCCOP(=O)(OCCC)C(Nc1nc2c(C)cccc2s1)c1ccccc1F` (stereo unspecified), the inhibition at 1 µM in assay [1] is 21.7%; in assay [4], -0.2%; in assay [7] it was 15.9%; in [10], -18.9%. The inhibition at 5 µM in [2] was 29.4%; in assay [5], 4.8%; in assay [8], 27.3%; in assay [11], 0.8%. Moreover, the inhibition at 10 µM in [3] turned out to be 43.3%; in assay [6], 4.3%; in assay [9], 31.7%; in assay [12], 21.7%.
For the compound `COc1ccc2nc(NC(c3ccccc3F)P(=O)(OC(C)C)OC(C)C)sc2c1` (stereo unspecified), the inhibition at 1 µM was -8.5% in assay [1], -4.3% in assay [4], -7.4% in assay [7] and 39.7% in assay [10]. In addition, the inhibition at 5 µM was 2.1% in assay [2], 1.7% in assay [5], 7.5% in assay [8] and 43.2% in assay [11]. In addition, the inhibition at 10 µM in assay [3] amounted to 18.5%; in assay [6], 2.8%; in assay [9], 16.7%; in assay [12] it was 50.4%.
With `CCCCOP(=O)(OCCCC)C(Nc1nc2c(C)cccc2s1)c1ccccc1F` (stereo unspecified), the inhibition at 1 µM in assay [1] stood at 52.1%; in [4], 11.2%; in assay [7], 32.1%; in assay [10], 10%. Further, the inhibition at 5 µM is 86% in assay [2], 25.6% in assay [5], 49% in [8] and 29% in [11]. For the same compound, the inhibition at 10 µM in assay [3] is 89.1%; in assay [6], 32.1%; in [9] it was 72.1%; in [12], 38.1%.
With `COc1ccc2nc(NC(c3ccccc3F)P(=O)(OC)OC)sc2c1` (stereo unspecified), the inhibition at 1 µM in assay [1] was 21.4%; in assay [4], 4.3%; in assay [7], 1.9%; in assay [10], 11.9%. The inhibition at 5 µM in [2] was 26.6%; in assay [5], 10.1%; in [8], 7.9%; in assay [11] it was 17.8%. Further, the inhibition at 10 µM came out at 33.3% in assay [3], 11.4% in assay [6], 8.64% in [9] and 25.1% in assay [12].
As for `CCOP(=O)(OCC)C(Nc1nc2c(C)cccc2s1)c1ccc(C(F)(F)F)cc1` (stereo unspecified), the inhibition at 1 µM in assay [1] is 12.6%; in [4], -10.2%; in assay [7], 0.36%; in [10] it was -5.2%. In addition, the inhibition at 5 µM in [2] amounted to 13.5%; in assay [5], 1.6%; in [8], 2.06%; in assay [11] it was 9.8%. Also, the inhibition at 10 µM in assay [3] was found to be 49.3%; in assay [6], 14.2%; in assay [9], 16.9%; in assay [12], 16.7%.
For the compound `CCCCOP(=O)(OCCCC)C(Nc1nc2c(C)cccc2s1)c1ccc(C(F)(F)F)cc1` (stereo unspecified), the inhibition at 1 µM was 5% in assay [1], -3.2% in [4], 37.7% in assay [7] and 0.1% in [10]. In addition, the inhibition at 5 µM amounted to 31.6% in assay [2], 21.6% in assay [5], 40.8% in [8] and 9.2% in [11]. Besides, the inhibition at 10 µM in assay [3] came out at 36%; in assay [6], 31.5%; in assay [9] it was 57.4%; in [12], 20.3%.
Consider `CCOP(=O)(OCC)C(Nc1nc2ccc(OC)cc2s1)c1ccc(F)cc1` (stereo unspecified), for which the inhibition at 1 µM in [1] was found to be 32.1%; in [4], 8%; in assay [7], 11.2%; in assay [10], 10%. The inhibition at 5 µM was found to be 41% in [2], 10.9% in assay [5], 20.9% in assay [8] and 39% in assay [11]. The inhibition at 10 µM in [3] worked out at 49.5%; in [6], 34.5%; in [9], 31.2%; in assay [12], 49.9%.
